What was measured:
[1] = Clearance in cynomolgus monkey at 2 mg/kg, po and 0.5 mg/kg, iv; format: ADME, organism-based, Macaca fascicularis; conditions: in vivo
[2] = Volume of distribution at steady state in Sprague-Dawley rat at 10 mg/kg, po and 1 mg/kg, iv; format: ADME, organism-based; conditions: in vivo, read-out: Vdss
[3] = Ratio of drug uptake in brain to plasma of Sprague-Dawley rat at 10 mg/kg, po measured after 1 hr; format: ADME, organism-based; set-up: dose 10 mg/kg, route oral; conditions: read-out: BPR
[4] = Volume of distribution at steady state in cynomolgus monkey at 2 mg/kg, po and 0.5 mg/kg, iv; format: ADME, organism-based, Macaca fascicularis; conditions: in vivo, read-out: Vdss
[5] = species: Rattus norvegicus; test: Drug metabolism in rat assessed as formation of (+)-2-(4-(benzo[b]thiophen-5-yl)-2-methyl-1,2,3,4-tetrahydroisoquinolin-7-ylamino)ethanol; format: ADME, organism-based; conditions: in vivo
[6] = test system: Liver microsome; test: Drug metabolism in rat liver microsomes assessed as formation of (+)-2-(4-(benzo[b]thiophen-5-yl)-2-methyl-1,2,3,4-tetrahydroisoquinolin-7-ylamino)ethanol; format: ADME
[7] = Oral bioavailability in Sprague-Dawley rat at 10 mg/kg; format: ADME, organism-based; conditions: in vivo
[8] = Clearance in Sprague-Dawley rat at 10 mg/kg, po and 1 mg/kg, iv; format: ADME, organism-based; conditions: in vivo
[9] = test system: Liver microsome; test: Drug metabolism in human liver microsomes assessed as formation of (+)-2-(4-(benzo[b]thiophen-5-yl)-2-methyl-1,2,3,4-tetrahydroisoquinolin-7-ylamino)ethanol; format: ADME
[10] = Oral bioavailability at steady state in cynomolgus monkey at 2 mg/kg; format: ADME, organism-based, Macaca fascicularis; conditions: in vivo

- clearance [1]: 27 mL/min/kg
- Vd [2]: 14 L/kg
- Kp at 1 h [3]: 3
- Vd [4]: 16 L/kg
- Drug metabolism [5]: metabolite_notdetected
- Drug metabolism [6]: metabolite_detected
- bioavailability [7]: 81%
- clearance [8]: 47 mL/min/kg
- Drug metabolism [9]: metabolite_detected
- bioavailability [10]: 39%
SMILES: CN1Cc2cc(N3CCOCC3)ccc2[C@@H](c2ccc3sccc3c2)C1

From ChEMBL document CHEMBL3351632, “Design and synthesis of 4-heteroaryl 1,2,3,4-tetrahydroisoquinolines as triple reuptake inhibitors” (ACS Med Chem Lett, 2014)
